Test results taken from ChEMBL document CHEMBL1201862, “PubChem BioAssay data set” (2004).
Activity calls are given as the source filed them.

Columns and labels:
[1] = tested on: H4; test: Luminescence Cell-Based Dose Response HTS to Identify Activators of 5'UTR Stem-Loop Driven Prion Protein mRNA Translation in H4 Neuroglioblastoma Cells. [Related pubchem assays: 1829 (Project Summary), 1814 (Primary HTS)]; format: functional; conditions: Homo sapiens
[2] = target: NACHT, LRR and PYD domains-containing protein 3 (Homo sapiens, UniProt Q96P20); test: NALP3 inhibitors in yeast, dose response, luminescent (AID 488799); format: functional
[3] = Luminescence Cell-Based Dose Response HTS to Identify Activators of Luciferase Translation or Activity in H4 […] Cells. [Related pubchem assays: 1829 (Project Summary), 1814 (Primary HTS)]; format: functional
[4] = Luminescence Cell-Based Dose Confirmation HTS to Identify Activators of 5'UTR Stem-Loop Driven Alpha-Synuclein mRNA Translation in H4 Neuroglioblastoma Cells. [Related pubchem assays: 1829 (Project Summary), 1814 (Primary HTS)]; format: functional
[5] = target: T1, Scavenger receptor class B member 1 (Mus musculus, UniProt Q61009); test: mouse SR-BI DiI-HDL uptake blockers – ldlA[mSR-BI] cells, fluorescence, cherry pick, dose response (AID 493194); format: functional, cell-based;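 also: cellular uptake of fluorescent DiI-labeled HDL measured as cell fluorescence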
T1 sequence (Q61009 whole entry): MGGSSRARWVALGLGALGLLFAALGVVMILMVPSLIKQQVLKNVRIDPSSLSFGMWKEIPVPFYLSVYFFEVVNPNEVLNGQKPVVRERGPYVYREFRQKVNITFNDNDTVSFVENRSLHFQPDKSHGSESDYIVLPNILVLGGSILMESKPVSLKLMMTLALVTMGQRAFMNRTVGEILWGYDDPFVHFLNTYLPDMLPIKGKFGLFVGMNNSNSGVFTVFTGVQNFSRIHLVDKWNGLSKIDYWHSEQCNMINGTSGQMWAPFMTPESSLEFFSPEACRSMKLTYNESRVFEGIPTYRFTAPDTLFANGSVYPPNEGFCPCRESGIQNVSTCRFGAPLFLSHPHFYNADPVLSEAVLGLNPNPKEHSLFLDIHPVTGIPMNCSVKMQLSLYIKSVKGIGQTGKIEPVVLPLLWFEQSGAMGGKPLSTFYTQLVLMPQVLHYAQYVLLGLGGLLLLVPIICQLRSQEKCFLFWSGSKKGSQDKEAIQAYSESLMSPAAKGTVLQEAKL

[6] = target: NACHT, LRR and PYD domains-containing protein 1 (Homo sapiens, UniProt Q9C000); test: NALP1 inhibitors in yeast, dose response, luminescent (AID 488860); format: functional
[7] = target: T2, Calpain-2 catalytic subunit (Sus scrofa, UniProt P43367); test: m-calpain protease blockers, concentration series – biochemical, fluorogenic peptide substrate, dose response (AID 1420); format: functional
T2 sequence (P43367 whole entry): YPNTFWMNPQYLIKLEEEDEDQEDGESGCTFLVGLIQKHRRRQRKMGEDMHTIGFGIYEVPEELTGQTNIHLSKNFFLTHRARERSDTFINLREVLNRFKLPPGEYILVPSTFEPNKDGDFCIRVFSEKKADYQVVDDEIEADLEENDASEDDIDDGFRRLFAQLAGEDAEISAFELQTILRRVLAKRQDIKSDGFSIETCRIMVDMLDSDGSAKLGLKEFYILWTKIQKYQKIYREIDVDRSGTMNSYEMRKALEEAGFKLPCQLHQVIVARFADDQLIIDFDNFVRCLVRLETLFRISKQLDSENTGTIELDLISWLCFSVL

[8] = tested on: Saccharomyces cerevisiae; test: S. cerevisiae Caspase-1/ASC signal blockers IC50, NALP1 inhibitor project selectivity test (AID 488863); format: functional, organism-based
[9] = target: G-protein coupled receptor 55 (Homo sapiens, UniProt Q9Y2T6); test: selective activators of receptor GPR55 – imaging, U2OS cells, beta-arrestin-GFP redistribution, primary screen (AID 1961); format: functional
[10] = target: Voltage-dependent T-type calcium channel subunit alpha-1H (Homo sapiens, UniProt O95180); test: human CACNA1H calcium influx blockade – cell-based, synthetic library set 1, calcium flux (AID 493022); format: functional
[11] = target: Cystic fibrosis transmembrane conductance regulator/Golgi-associated PDZ and coiled-coil motif-containing protein (Homo sapiens, UniProt P13569+Q9HD26); test: potency against CAL PDZ-peptide interaction – biochemical, fluorescence polarization, Cerulean-tagged CAL PDZ, cherry-picks, dose response (AID 504773)
[12] = tested on: HT-1080; test: HT1080 cell viability loss – fluorescence readout (AID 620); format: functional, cell-based; conditions: Homo sapiens
[13] = target: Paired box protein Pax-8 (Homo sapiens, UniProt Q06710); test: PAX8 transcriptional activity inhibition in RMG-I – RMG-I cells, luciferase, cherry-pick, dose response (AID 687027); format: functional, cell-based;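 also: luciferase reporter driven by Pax8 target thyroperoxidase promoter measured by SteadyGlo luminescence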
[14] = target: Neurotensin receptor type 1 (Homo sapiens, UniProt P30989); format: functional;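 also: Image-based confirmatory dose-response assay measuring agonist activity at NTR1; NTR1-expressing U2OS osteosarcoma cells imaged for beta-arrestin GFP spot formation; agonist potency where compounds increase beta-arrestin recruitment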
[15] = viability loss of HPDE-C7K cells – cell-based, fluorescence, HTS, primary screen (AID 431); format: functional; conditions: Homo sapiens
[16] = HPDE-C7 pancreatic duct cell viability loss – fluorescence, HTS (AID 430); format: functional, cell-based; conditions: Homo sapiens
[17] = target: Luciferin 4-monooxygenase (Photinus pyralis, UniProt P08659); test: Counter Screen for Luciferase-based Assay Positives. [Related pubchem assays: 620, 618, 411 ]
[18] = target: Bcl-2-like protein 10 (Homo sapiens, UniProt Q9HD36); test: Bcl-B/TR3 peptide binding disruption – biochemical, fluorescence polarization, FITC-TR3 peptide, selectivity assay for Bfl-1 inhibitor project, primary screen (AID 748);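 also: fluorescence polarization from a fluorescein-labelled TR3 peptide binding purified Bcl-B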
Sequence of Bcl-2-like protein 10 (Q9HD36 whole entry): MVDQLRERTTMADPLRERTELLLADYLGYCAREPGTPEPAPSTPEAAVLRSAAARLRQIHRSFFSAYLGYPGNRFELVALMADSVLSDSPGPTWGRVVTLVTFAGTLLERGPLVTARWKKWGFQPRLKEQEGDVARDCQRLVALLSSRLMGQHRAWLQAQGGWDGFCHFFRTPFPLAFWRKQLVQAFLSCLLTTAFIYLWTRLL

Sequence of NACHT, LRR and PYD domains-containing protein 1 (Q9C000 1-1212 limits assumed): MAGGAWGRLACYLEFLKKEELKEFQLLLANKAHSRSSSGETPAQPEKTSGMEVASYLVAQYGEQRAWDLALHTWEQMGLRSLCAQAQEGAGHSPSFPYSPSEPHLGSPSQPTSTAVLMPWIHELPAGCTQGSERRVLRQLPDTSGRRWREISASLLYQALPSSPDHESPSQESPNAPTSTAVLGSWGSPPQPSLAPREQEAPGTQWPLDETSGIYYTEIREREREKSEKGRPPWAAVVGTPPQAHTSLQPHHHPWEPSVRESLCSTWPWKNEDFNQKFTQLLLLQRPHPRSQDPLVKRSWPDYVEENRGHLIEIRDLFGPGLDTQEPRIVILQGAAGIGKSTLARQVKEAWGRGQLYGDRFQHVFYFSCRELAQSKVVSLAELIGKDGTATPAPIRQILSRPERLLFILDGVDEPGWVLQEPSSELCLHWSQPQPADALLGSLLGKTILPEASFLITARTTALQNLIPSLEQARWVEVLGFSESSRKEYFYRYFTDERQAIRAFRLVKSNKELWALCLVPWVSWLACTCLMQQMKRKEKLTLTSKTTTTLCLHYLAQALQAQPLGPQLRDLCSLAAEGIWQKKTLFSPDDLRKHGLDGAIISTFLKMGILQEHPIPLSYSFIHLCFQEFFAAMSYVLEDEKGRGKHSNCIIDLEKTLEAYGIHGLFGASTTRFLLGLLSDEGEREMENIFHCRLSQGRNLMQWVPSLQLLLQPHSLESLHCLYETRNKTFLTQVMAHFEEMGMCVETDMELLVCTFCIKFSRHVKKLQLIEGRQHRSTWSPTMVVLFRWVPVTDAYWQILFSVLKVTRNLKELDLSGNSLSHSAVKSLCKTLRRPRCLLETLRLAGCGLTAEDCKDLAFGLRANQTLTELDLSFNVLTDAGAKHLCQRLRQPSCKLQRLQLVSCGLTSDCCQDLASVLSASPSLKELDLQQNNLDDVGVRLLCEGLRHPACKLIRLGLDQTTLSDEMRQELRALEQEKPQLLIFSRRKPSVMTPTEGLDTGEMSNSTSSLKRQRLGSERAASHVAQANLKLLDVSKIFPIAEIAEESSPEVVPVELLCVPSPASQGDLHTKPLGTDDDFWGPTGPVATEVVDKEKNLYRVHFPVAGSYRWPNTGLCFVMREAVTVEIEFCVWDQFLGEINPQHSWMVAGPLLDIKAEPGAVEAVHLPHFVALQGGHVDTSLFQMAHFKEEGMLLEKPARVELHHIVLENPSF
Sequence of NACHT, LRR and PYD domains-containing protein 1 (Q9C000 1213-1473 limits assumed): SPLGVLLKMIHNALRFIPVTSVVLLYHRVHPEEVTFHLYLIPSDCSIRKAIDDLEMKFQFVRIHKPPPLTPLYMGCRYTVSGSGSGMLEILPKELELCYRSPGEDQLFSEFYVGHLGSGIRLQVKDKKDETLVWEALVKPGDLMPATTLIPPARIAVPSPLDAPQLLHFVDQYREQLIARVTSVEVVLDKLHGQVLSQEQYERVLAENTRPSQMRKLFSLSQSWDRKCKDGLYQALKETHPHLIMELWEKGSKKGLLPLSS
Sequence of Neurotensin receptor type 1 (P30989 whole entry): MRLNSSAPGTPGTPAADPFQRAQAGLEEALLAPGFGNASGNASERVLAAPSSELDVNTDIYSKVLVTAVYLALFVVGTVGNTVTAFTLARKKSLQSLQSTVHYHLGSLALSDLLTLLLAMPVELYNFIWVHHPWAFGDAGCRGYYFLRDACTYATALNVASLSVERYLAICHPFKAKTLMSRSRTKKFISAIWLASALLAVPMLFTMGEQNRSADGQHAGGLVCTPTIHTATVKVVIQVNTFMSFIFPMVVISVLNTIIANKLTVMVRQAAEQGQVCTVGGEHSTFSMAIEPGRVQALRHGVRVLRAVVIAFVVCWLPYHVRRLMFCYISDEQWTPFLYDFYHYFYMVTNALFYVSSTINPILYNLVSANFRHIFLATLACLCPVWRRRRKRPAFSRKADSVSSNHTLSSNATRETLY
Sequence of Paired box protein Pax-8 (Q06710 whole entry): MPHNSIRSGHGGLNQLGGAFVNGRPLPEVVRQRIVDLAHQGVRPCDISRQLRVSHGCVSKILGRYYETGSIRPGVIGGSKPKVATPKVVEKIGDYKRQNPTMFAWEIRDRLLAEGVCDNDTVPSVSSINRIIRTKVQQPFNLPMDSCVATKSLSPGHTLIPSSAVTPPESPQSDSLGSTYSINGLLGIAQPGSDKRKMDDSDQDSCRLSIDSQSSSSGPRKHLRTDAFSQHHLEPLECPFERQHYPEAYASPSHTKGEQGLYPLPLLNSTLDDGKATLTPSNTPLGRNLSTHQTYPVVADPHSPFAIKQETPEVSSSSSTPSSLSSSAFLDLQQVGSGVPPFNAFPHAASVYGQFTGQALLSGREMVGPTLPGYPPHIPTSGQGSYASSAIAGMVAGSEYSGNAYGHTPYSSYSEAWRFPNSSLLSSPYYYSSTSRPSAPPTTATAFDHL
Sequence of G-protein coupled receptor 55 (Q9Y2T6 whole entry): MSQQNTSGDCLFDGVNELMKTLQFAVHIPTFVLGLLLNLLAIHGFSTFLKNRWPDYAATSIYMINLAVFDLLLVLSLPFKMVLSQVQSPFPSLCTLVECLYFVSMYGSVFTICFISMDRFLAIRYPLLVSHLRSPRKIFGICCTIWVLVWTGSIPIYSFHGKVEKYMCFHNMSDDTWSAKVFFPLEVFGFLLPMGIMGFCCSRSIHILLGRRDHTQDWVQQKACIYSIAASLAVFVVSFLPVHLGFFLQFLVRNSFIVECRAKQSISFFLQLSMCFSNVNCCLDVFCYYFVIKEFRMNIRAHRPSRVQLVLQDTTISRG
Sequence of Cystic fibrosis transmembrane conductance regulator/Golgi-associated PDZ and coiled-coil motif-containing protein (P13569 whole entry, other chains not shown): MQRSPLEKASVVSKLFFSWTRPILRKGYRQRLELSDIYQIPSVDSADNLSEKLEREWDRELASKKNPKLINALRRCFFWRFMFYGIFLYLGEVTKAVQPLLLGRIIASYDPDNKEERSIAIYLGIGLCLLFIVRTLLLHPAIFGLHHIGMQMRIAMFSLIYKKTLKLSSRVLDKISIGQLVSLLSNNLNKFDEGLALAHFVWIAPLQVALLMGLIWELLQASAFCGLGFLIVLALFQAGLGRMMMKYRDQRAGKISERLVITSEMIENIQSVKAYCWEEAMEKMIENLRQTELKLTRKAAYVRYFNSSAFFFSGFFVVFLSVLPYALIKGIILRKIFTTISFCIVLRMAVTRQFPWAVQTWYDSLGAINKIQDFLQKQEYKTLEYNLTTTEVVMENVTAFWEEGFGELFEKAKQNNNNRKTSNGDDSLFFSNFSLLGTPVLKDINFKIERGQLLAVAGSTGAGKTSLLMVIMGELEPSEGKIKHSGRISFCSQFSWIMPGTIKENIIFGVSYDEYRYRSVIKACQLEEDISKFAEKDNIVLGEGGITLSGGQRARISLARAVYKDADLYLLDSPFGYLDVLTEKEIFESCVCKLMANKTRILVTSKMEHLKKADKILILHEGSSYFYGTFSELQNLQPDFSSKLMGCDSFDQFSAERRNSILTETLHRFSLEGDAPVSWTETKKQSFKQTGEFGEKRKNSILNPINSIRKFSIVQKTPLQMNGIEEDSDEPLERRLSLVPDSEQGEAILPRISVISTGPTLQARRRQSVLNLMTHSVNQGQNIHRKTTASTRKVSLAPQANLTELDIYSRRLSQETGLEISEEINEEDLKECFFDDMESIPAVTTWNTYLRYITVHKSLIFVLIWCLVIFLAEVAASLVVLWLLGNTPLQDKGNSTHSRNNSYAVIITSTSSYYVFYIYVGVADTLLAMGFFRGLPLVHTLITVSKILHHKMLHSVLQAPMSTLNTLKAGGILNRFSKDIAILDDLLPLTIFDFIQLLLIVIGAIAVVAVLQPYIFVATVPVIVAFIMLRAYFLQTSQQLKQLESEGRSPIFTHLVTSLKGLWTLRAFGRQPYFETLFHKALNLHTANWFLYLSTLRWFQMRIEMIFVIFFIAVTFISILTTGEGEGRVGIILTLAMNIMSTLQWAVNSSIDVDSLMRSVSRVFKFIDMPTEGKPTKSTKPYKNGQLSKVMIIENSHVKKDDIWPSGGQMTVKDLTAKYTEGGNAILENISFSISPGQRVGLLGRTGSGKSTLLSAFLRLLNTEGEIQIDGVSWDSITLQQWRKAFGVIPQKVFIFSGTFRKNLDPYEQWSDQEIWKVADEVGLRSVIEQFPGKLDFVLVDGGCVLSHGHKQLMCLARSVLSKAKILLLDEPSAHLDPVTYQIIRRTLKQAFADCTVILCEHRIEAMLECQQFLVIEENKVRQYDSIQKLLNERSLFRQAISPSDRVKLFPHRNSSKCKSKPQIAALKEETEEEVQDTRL
Sequence of Luciferin 4-monooxygenase (P08659 whole entry): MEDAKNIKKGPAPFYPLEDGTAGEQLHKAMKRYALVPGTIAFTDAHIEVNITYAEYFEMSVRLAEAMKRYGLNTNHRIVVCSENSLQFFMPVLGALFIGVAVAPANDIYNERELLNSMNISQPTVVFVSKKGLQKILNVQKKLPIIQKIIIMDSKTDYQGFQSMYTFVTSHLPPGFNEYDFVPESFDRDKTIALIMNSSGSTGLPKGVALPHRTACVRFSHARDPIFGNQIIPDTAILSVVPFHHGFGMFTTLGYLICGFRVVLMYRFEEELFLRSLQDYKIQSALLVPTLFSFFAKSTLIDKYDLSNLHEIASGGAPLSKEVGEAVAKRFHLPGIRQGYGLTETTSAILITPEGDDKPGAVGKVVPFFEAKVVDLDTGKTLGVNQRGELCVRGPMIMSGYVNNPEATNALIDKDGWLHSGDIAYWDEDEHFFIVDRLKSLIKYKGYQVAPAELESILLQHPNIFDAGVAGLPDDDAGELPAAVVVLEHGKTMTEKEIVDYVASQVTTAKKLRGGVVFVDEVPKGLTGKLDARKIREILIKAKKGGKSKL

## COc1ccc(NC(=O)C#Cc2ccccc2)cc1
[1]
  EC50: 22.1 µM (active)
[2]
  IC50: 8.01 µM (active)
[3]
  EC50: 32.6 µM (active)
[4]
  EC50: 0.192 µM (active)

## Cc1ccccc1CN1CCN(C(=O)c2ccc(S(=O)(=O)NCc3ccco3)cc2)CC1
[5]
  AC50: 0.092 µM (active)

## O=S(=O)(Nc1ccc(-n2cccc2)cc1)c1ccc(Cl)cc1Cl
[6]
  IC50: 18.3 µM (active)
[7]
  IC50: 9.85 µM (not active)
[8]
  IC50: 56.8 µM (active)

## CC(C)C[C@@H](COc1ccccc1)N1CCN(CCc2ccccc2)CCC1=O
[9]
  EC50: 2.69 µM (active)

## O=C(COc1ccc(F)cc1)Nc1nnc(-c2ccc(F)cc2)o1
[10]
  EC50: 10 µM (active)

## c1ccc(C(c2ccccc2)c2cccnc2)cc1
[11]
  AC50: 45.6 µM (active)

## Cc1ccc(-c2csc3ncnc(Sc4nnc(CN5CCCCCC5=O)o4)c23)cc1
[12]
  EC50: 20.1 µM (active)
[13]
  AC50: 5 µM (active)
[14]
  EC50: 8.73 µM (active)
[15]
  EC50: 2.1 µM (active)
[16]
  EC50: 1.78 µM (active)
[17]
  EC50: 74 µM (active)

## Cc1cc2cc(CN(Cc3ccco3)S(=O)(=O)c3c(C)ccc4nsnc34)c(=O)[nH]c2cc1C
[18]
  IC50: > 100 µM (inactive)
